According to US20250109343A1, “CORROSION INHIBITOR” (INNOSPEC LIMITED, priority 2022, published 2025):

Key:
[1] = Linear Polarisation Resistance (LPR) Test, Example 30, synthetic brine composition 1 or 2
[2] = LPR test of Example 31, variety of brines and brine/depolarised kerosene fluids
Method: The LPR test was carried out using the corrosion inhibitor of Example 1. The LPR test was carried out using the same conditions as the LPR test of Example 30 except for the composition of the corrosive fluid, the temperature, and the dose of the corrosion inhibitor.

[3] = brine composition 1, dose 40 ppm of product, one addition, time 19.9-20.1 hr, 60° C., constant CO2 sparge
[4] = brine composition 2, dose 40* ppm, four additions each of 10 ppm, time 25.3-28.8 hr, 60° C., constant CO2 sparge
[5] = Test 1: brine composition 1 (Table 6), 60 ° C., dose 50 ppm, 4 hours
[6] = Test 3: brine composition 3 and depolarised kerosene 90:10 volume ratio, 82 ° C., dose 60 ppm, 5 hours
[7] = Test 4: brine composition 4 and depolarised kerosene 90:10 volume ratio, 82 ° C., dose 60 ppm, 5 hours
[8] = Test 5: brine composition 5 and depolarised kerosene 90:10 volume ratio, 82 ° C., dose 60 ppm, 5 hours
[9] = Test 6: brine composition 6 and depolarised kerosene 90:10 volume ratio, 82 ° C., dose 60 ppm, 5 hours

| Substance | Corrosion protection [1] [%] | Corrosion rate [1] [mmpy] | also measured |
| --- | --- | --- | --- |
| disodium 2-octen-1-ylsuccinate [Example 5] | – | – | Corrosion protection [1, 3]: 89%; Corrosion rate [1, 3]: 0.46 mmpy |
| potassium PEG200 2-octen-1-yI succinate [Example 21] | – | – | Corrosion protection [1, 4]: 59%; Corrosion rate [1, 4]: 2.24 mmpy |
| sodium 1,6-hexanediol dodecenyl succinate [Example 15] | 41 | 1.68 | – |
| sodium 1-hexanol dodecenyl succinate [Example 10] | 92 | 0.29 | – |
| sodium 2-ethyl-1,3-hexanediol dodecenyl succinate [Example 9] | 51 | 2.02 | – |
| sodium 3-dimethylaminopropylamine dodecenyl succinamide [Example 13] | 46 | 1.73 | – |
| sodium PEG200 2-octen-1-ylsuccinate [Example 1] | 99 | 0.03 | Corrosion protection [2, 5]: 96%; Corrosion rate [2, 5]: 0.1320 mmpy; Corrosion protection ([2]; Test 2: brine composition 2 (Table 6), 60 ° C., dose 50 ppm, 4 hours): 96%; Corrosion protection [2, 6]: 99%; Corrosion rate [2, 6]: 0.0358 mmpy; Corrosion protection [2, 7]: 98%; Corrosion rate [2, 7]: 0.0833 mmpy; Corrosion protection [2, 8]: 96%; Corrosion rate [2, 8]: 0.1387 mmpy; Corrosion protection [2, 9]: 95%; Corrosion rate [2, 9]: 0.1646 mmpy; Corrosion inhibition, result in words ([2]; variety of brines and brine/hydrocarbon emulsions): effective corrosion inhibitor |
| sodium benzyl alcohol dodecenyl succinate [Example 8] | 96 | 0.14 | – |
| sodium diethanolamine dodecenylsuccinamide [Example 4] | 99 | 0.06 | – |
| sodium dodecanol phthalate [Example 26] | 99 | – | – |
| sodium furfuryl alcohol dodecenyl succinic anhydride [Example 28] | 99 | 0.04 | – |
| triethanolamine PEG200 2-octen-1-yl succinate [Example 22] | 68 | 2.44 | – |
